In US20120065228A1, “COMPOSITIONS AND METHODS FOR TREATING, CONTROLLING, REDUCING, OR AMELIORATING OCULAR INFLAMMATORY WITH LOWER RISK OF INCREASED INTRAOCULAR PRESSURE” (priority 2007, published 2012):
Values joined by “and” are separate entries in the source; they are usually repeats but may differ in a detail not shown here. Equal values may be shown once.

How the values were obtained:
Type in all cases: in vivo
rabbit eye = experiment: Clinical evaluation by slit lamp (clinical score), rabbit paracentesis model; set-up: key to Clinical Score −180 min / Clinical Score −5 min / Clinical Score +115 min: 0: normal; 1: discrete dilatation of iris and conjunctival vessels; 2: moderate dilatation of iris and conjunctival vessels; 3: intense iridal hyperemia with flare in the anterior chamber; 4: intense iridal hyperemia with flare in the anterior chamber and presence of fibrinous exudates; conditions: 0.1% topical formulation
[1] = test system: intraocular pressure (IOP) in New Zealand White rabbits; experiment: Intraocular pressure in New Zealand White rabbits, topical dosing four times daily
Method: On Days 1-31, animals received daily topical doses of the appropriate test article into the right eye. Animals were dosed four times per day, with doses administered 2 hours apart. Doses were administered using a calibrated 50-μL pipette. The eyelids were held close for 10 seconds immediately following dosing. The time of each dose administration was recorded.
Intraocular pressure (“IOP”) was determined for both eyes of each animal on Days 3, 5, 10, 12, 16, 18, 22, 24, 26, 30, and 32. LOP was evaluated with a Medtronic Solan, Model 30 classic pneumatonometer. Proparacaine hydrochloride 0.5% (1 drop) was delivered to each eye prior to IOP measurement. IOP was measured on Monday, Wednesday, and Friday of each week. A two-point diurnal curve was established: IOP was recorded at 8 a.m. and 12 p.m. on Day 3, and at 8 a.m. and 2 p.m. on later days, with a ±1 hour range for each of these times. The time of the measurements was recorded.
Descriptive statistics were prepared for IOP data of each treatment group (left and right eyes separately) at each measurement interval. The statistics included the number of observations (“N”), mean, standard deviation (“STD”), and standard error (“SEM”). Statistical analyses were conducted on IOP results using Statistical Analysis Systems (SAS Institute, Inc., Cary, N.C., V8.0). Parameters were evaluated using analysis of variance/GLM Procedure followed by Tukey's Standardized Range Test (Tukey, 1985) for post hoc comparisons of group means. The level of significance was set at a probability of p<0.05 for all statistical procedures. Group IOP means were compared at each interval, with left and right eyes compared separately.
IOP data for the following six animals were excluded from group statistics: Group A, Nos. 3081, 3037, 3068, and 3011; Group C, No. 3034; and Group E, No. 3084.

leukocytes (PMN) = experiment: Leukocytes (PMN) measurement in aqueous humor, rabbit paracentesis model; conditions: 0.1% topical formulation, second paracentesis
Method: Each rabbit was placed in a restraint device and tagged with the alphanumeric code. The formulations were instilled (50 μl) into the conjunctival sac of both eyes 180, 120, 90 and 30 min before the first paracentesis; then 15, 30, 90 min after the first paracentesis. To perform the first paracentesis the animals were anaesthetized by intravenous injection of 5 mg/kg Zoletil® (Virbac; 2.5 mg/kg tiletamine HCl and 2.5 mg/kg zolazepam HCl) and one drop of local anesthetic (Novesina®, Novartis) was administered to the eye. Anterior chamber paracentesis was performed with a 26 G needle attached to a tuberculin syringe; the needle was introduced into the anterior chamber through the cornea, taking care not to damage the tissues. Two hours after the ® first paracentesis, the animals were sacrificed with 0.4 ml Tanax® (Intervet International B.V.) and the second paracentesis was performed. About 100 μl of aqueous humor were removed at the second paracentesis. Aqueous humor was immediately split in four aliquots and stored at −80° C. until analysis. Then both eyes were enucleated and the iris-ciliary body was carefully excised, placed in polypropylene tubes, and stored at −80° C. until analysis.
For the determination of the number of leukocytes we used a haemocytometer (Improved Neubauer Chamber; Bright-line. Hausser Scientific) and a Polyvar 2 microscope (Reichert-Jung).
Pupillary diameter, PGE2, protein, PMN, and MPO were expressed as mean±SEM. Statistical analysis was performed using one way ANOVA followed by a Newman-Keuls post hoc test. Clinical score was expressed as % of eyes and the statistical analysis was performed using Kruskal-Wallis followed by a Dunn post hoc test. P<0.05 was considered statistically significant in both cases. Prism 4 software (GraphPad Software, Inc.) was used for the analysis and graphs.

C[C@@H]1C[C@H]2[C@@H]3CCC4=CC(=O)C=C[C@]4(C)[C@@]3(F)[C@@H](O)C[C@]2(C)[C@@]1(O)C(=O)CO [dexamethasone, reference compound]
Clinical Score −5 min (rabbit eye; 5 min before the first paracentesis, individual eyes, listed as Dex): 0 (6×) and 1 (2×)
Clinical Score +115 min (rabbit eye; 5 min before the second paracentesis, individual eyes, listed as Dex): 1 (6×) and 3 (2×)
Clinical score as percentage of eyes, Score (%) 1 (rabbit eye; +115 min, 8 eyes): 75%
Clinical score as percentage of eyes, Score (%) 3 (rabbit eye; +115 min, 8 eyes): 25%
Clinical Score −180 min (rabbit eye; basal, individual eyes): 0
Clinical score as percentage of eyes, Score (%) 0 (rabbit eye; −5 min, 8 eyes): 75%
Clinical score as percentage of eyes, Score (%) 1 (rabbit eye; −5 min, 8 eyes): 25%
Clinical score as percentage of eyes, Score (%) 0 (rabbit eye; −180 min (basal), 8 eyes): 100%
Mean IOP versus corresponding eyes of other groups ([1]; 0.1% dexamethasone suspension, on several days, p<0.05): significantly higher
Mean IOP after treatment began ([1]; rabbits, right eye four times daily up to 31 days, dexamethasone 0.1%, BOL-303242-X 1, 5, 10 mg/g, left and right eyes): increased sharply
PMN in aqueous humor, Mean (leukocytes (PMN)): 30.000 number/μl
PMN in aqueous humor (leukocytes (PMN); individual eyes, listed as Dex): 20 number/μl (3×) and 50 number/μl and 40 number/μl and 30 number/μl
